Data published in PubChem BioAssay AID2060601 (Molecular Pharmacology Branch, DTP, NCI, 2025).

Test system: 874868-142-R-J2-PDC complex spheroids, growth % test/control
Experiment: Anticancer human tumor 874868-142-R-J2-PDC patient-derived head and neck squamous carcinoma cell line growth inhibition [CLK]
Details: for IC50: curve of first compound; for viability, T/C: stronger effect = lower value; active = viability on the fitted dose curve at most 10% of control; inactive = the rest
Summary of the method: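 Patient-derived tumor cells grown as complex spheroids with HUVEC endothelial cells and mesenchymal stem cells, treated with drug combinations. Concentrations descend in half-log steps from near clinical Cmax, or from 10 microM if Cmax unknown.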

[1] = second compound 0.0316 µM, first compound 0.0316 µM
[2] = second compound 0.0316 µM, first compound 0.1 µM
[3] = second compound 0.0316 µM, first compound 0.316 µM
[4] = second compound 0.0316 µM, first compound 1 µM
[5] = second compound 0.0316 µM, first compound 3.16 µM
[6] = second compound 0.0316 µM, first compound 10 µM
[7] = second compound 0.1 µM, first compound 0.0316 µM
[8] = second compound 0.1 µM, first compound 0.1 µM
[9] = second compound 0.1 µM, first compound 0.316 µM
[10] = second compound 0.1 µM, first compound 1 µM
[11] = second compound 0.1 µM, first compound 3.16 µM
[12] = second compound 0.1 µM, first compound 10 µM
[13] = second compound 0.316 µM, first compound 0.0316 µM
[14] = second compound 0.316 µM, first compound 0.1 µM
[15] = second compound 0.316 µM, first compound 0.316 µM
[16] = second compound 0.316 µM, first compound 1 µM
[17] = second compound 0.316 µM, first compound 3.16 µM
[18] = second compound 0.316 µM, first compound 10 µM
[19] = second compound 1 µM, first compound 0.0316 µM
[20] = second compound 1 µM, first compound 0.1 µM
[21] = second compound 1 µM, first compound 0.316 µM
[22] = second compound 1 µM, first compound 1 µM
[23] = second compound 1 µM, first compound 3.16 µM
[24] = second compound 1 µM, first compound 10 µM
[25] = second compound 3.16 µM, first compound 0.0316 µM
[26] = second compound 3.16 µM, first compound 0.1 µM
[27] = second compound 3.16 µM, first compound 0.316 µM
[28] = second compound 3.16 µM, first compound 1 µM
[29] = second compound 3.16 µM, first compound 3.16 µM
[30] = second compound 3.16 µM, first compound 10 µM
[31] = second compound 10 µM, first compound 0.0316 µM
[32] = second compound 10 µM, first compound 0.1 µM
[33] = second compound 10 µM, first compound 0.316 µM
[34] = second compound 10 µM, first compound 1 µM
[35] = second compound 10 µM, first compound 3.16 µM
[36] = second compound 10 µM, first compound 10 µM
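Also: spheroids exposed to the compounds for 7 days.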
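For viability, T/C in this document: 100% = DMSO vehicle control viability.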

CC(=O)O[C@H]1C(=O)[C@@]2(C)[C@H]([C@H](OC(=O)c3ccccc3)[C@]3(O)C[C@H](OC(=O)[C@H](O)[C@@H](NC(=O)c4ccccc4)c4ccccc4)C(C)=C1C3(C)C)[C@]1(OC(C)=O)CO[C@@H]1C[C@@H]2O + CNC(=O)c1ccc(Nc2nc(OC3CCCC3)c3c(-c4ccc5nc(C)oc5c4)c[nH]c3n2)c(OC)c1
> 10 µM: IC50 (second compound 0.316 µM)
inactive: viability, T/C [1] 47.4% | viability, T/C [2] 33.5% | viability, T/C [3] 39.4% | viability, T/C [4] 41.9% | viability, T/C [5] 48.9% | viability, T/C [6] 66.2% | viability, T/C [7] 53.9% | viability, T/C [8] 43.9% | viability, T/C [9] 50% | viability, T/C [10] 55.7% | viability, T/C [11] 62.7% | viability, T/C [12] 66.5% | viability, T/C [13] 54.3% | viability, T/C [14] 65.1% | viability, T/C [15] 72.6% | viability, T/C [16] 66.5% | viability, T/C [17] 77.6% | viability, T/C [18] 70.1% | viability, T/C [19] 47.1% | viability, T/C [20] 49.9% | viability, T/C [21] 53% | viability, T/C [22] 62.3% | viability, T/C [23] 52.6% | viability, T/C [24] 61.9% | viability, T/C [25] 47.8% | viability, T/C [26] 45.7% | viability, T/C [27] 52.4% | viability, T/C [28] 51% | viability, T/C [29] 57.5% | viability, T/C [30] 64.3% | viability, T/C [31] 43.7% | viability, T/C [32] 53% | viability, T/C [33] 58.3% | viability, T/C [34] 52.4% | viability, T/C [35] 57.6% | viability, T/C [36] 50.5%
< 0.0316 µM: IC50 (second compound 0.0316 µM) | IC50 (second compound 0.1 µM) | IC50 (second compound 1 µM) | IC50 (second compound 3.16 µM) | IC50 (second compound 10 µM)

COc1ccc([C@@H](O)c2cc(-c3ncnc4cc(N5CCOCC5)ccc34)c(F)cc2Cl)nn1 + CNC(=O)c1ccc(Nc2nc(OC3CCCC3)c3c(-c4ccc5nc(C)oc5c4)c[nH]c3n2)c(OC)c1
inactive: viability, T/C [1] 106% | viability, T/C [2] 100% | viability, T/C [3] 101% | viability, T/C [4] 64.5% | viability, T/C [5] 47.6% | viability, T/C [6] 31.7% | viability, T/C [7] 81.5% | viability, T/C [8] 89.7% | viability, T/C [9] 73.7% | viability, T/C [10] 67.5% | viability, T/C [11] 52.6% | viability, T/C [12] 36.9% | viability, T/C [13] 52.7% | viability, T/C [14] 60% | viability, T/C [15] 55.6% | viability, T/C [16] 40.5% | viability, T/C [17] 40.3% | viability, T/C [18] 23.4% | viability, T/C [19] 43.5% | viability, T/C [20] 46.5% | viability, T/C [21] 40% | viability, T/C [22] 29.7% | viability, T/C [23] 25.1% | viability, T/C [24] 23.1% | viability, T/C [25] 37.6% | viability, T/C [26] 38.9% | viability, T/C [27] 45.2% | viability, T/C [28] 32.9% | viability, T/C [29] 37% | viability, T/C [30] 23.5% | viability, T/C [31] 40.4% | viability, T/C [32] 38.6% | viability, T/C [33] 39.2% | viability, T/C [34] 28.6% | viability, T/C [35] 32.3% | viability, T/C [36] 18.6%
3.71 µM: IC50 (second compound 0.1 µM)
2.25 µM: IC50 (second compound 0.0316 µM)
< 0.0316 µM: IC50 (second compound 1 µM) | IC50 (second compound 3.16 µM) | IC50 (second compound 10 µM)
0.517 µM: IC50 (second compound 0.316 µM)

COc1cccc2c1C(=O)c1c(O)c3c(c(O)c1C2=O)CC(O)(C(=O)CO)CC3OC1CC(N)C(O)C(C)O1 (stereo unspecified) + CNC(=O)c1ccc(Nc2nc(OC3CCCC3)c3c(-c4ccc5nc(C)oc5c4)c[nH]c3n2)c(OC)c1
0.0472 µM: IC50 (second compound 0.316 µM)
< 0.0316 µM: IC50 (second compound 1 µM) | IC50 (second compound 3.16 µM) | IC50 (second compound 10 µM)
inactive: viability, T/C [1] 65.8% | viability, T/C [2] 40.8% | viability, T/C [3] 29.2% | viability, T/C [7] 66.7% | viability, T/C [8] 45.7% | viability, T/C [9] 23.5% | viability, T/C [13] 55.9% | viability, T/C [14] 38.6% | viability, T/C [15] 16.9% | viability, T/C [19] 32.1% | viability, T/C [20] 28.1% | viability, T/C [21] 17.6% | viability, T/C [25] 33.2% | viability, T/C [26] 27.8% | viability, T/C [27] 13.3% | viability, T/C [31] 28.5% | viability, T/C [32] 30.5% | viability, T/C [33] 15.8%
active: viability, T/C [4] 1.04% | viability, T/C [5] 0.15% | viability, T/C [6] 0.15% | viability, T/C [10] 0.86% | viability, T/C [11] 0.16% | viability, T/C [12] 3.76% | viability, T/C [16] 0.22% | viability, T/C [17] 0.17% | viability, T/C [18] 6.83% | viability, T/C [22] 0.21% | viability, T/C [23] 1.61% | viability, T/C [24] 0.16% | viability, T/C [28] 0.19% | viability, T/C [29] 1.44% | viability, T/C [30] 11.7% | viability, T/C [34] 0.27% | viability, T/C [35] 3.05% | viability, T/C [36] 5.77%
0.0856 µM: IC50 (second compound 0.1 µM)
0.0739 µM: IC50 (second compound 0.0316 µM)
